According to the NIST ThermoML archive (doi:10.1016/j.fluid.2008.02.001):
Where “and” joins values, the source holds several entries; their conditions need not be identical. Equal entries are not always repeated.

Details: Liquid, Transpiration method

CCCCCC(=O)OC [methyl hexanoate]
Details	vapor or sublimation pressure
280.7 K	0.1387 kPa
283.6 K	0.1707 kPa
284.6 K	0.1839 kPa
286.6 K	0.2147 kPa
287.6 K	0.2219 kPa
289.5 K	0.2598 kPa
290.5 K	0.2793 kPa and 0.2693 kPa
292.5 K	0.3111 kPa
293.3 K	0.3367 kPa
293.4 K	0.3489 kPa
293.5 K	0.3435 kPa
295.4 K	0.3851 kPa
296.4 K	0.4226 kPa
298.3 K	0.4594 kPa
298.4 K	0.4697 kPa
300.3 K	0.5403 kPa
303.3 K	0.6501 kPa
304.3 K	0.7261 kPa
308.3 K	0.8925 kPa
309.3 K	0.9193 kPa
312.3 K	1.147 kPa and 1.048 kPa
316.3 K	1.458 kPa
320.4 K	1.764 kPa
324.4 K	2.217 kPa
328.4 K	2.678 kPa
331.4 K	3.178 kPa

CCCCOC(=O)C(C)CC (centres undefined) [butanoic acid, 2-methyl-, butyl ester]
Details	vapor or sublimation pressure [kPa]
274.2 K	0.02305
276.2 K	0.02587
278.2 K	0.03181
280.2 K	0.0362
283.2 K	0.04723
288.1 K	0.06951
293.1 K	0.1043
298.1 K	0.1517
303.2 K	0.2142
308.2 K	0.3099
313.3 K	0.4305
316.2 K	0.5454
319.2 K	0.6694

CCCCCCC(=O)OC [methyl heptanoate]
Details	vapor or sublimation pressure [kPa]
278.1 K	0.03453
283.5 K	0.05365
286.4 K	0.06767
288.3 K	0.0791
290.3 K	0.09122
293.2 K	0.1164
296.2 K	0.1424
298.2 K	0.1642
300.3 K	0.1892
303.1 K	0.2326
306.1 K	0.2838
308.2 K	0.3321
310.2 K	0.3804
313.2 K	0.4658

CCCC(=O)OC(C)(C)CC [1,1-dimethylpropyl butanoate]
Details	vapor or sublimation pressure [kPa]
274.5 K	0.04772
276.5 K	0.05746
278.2 K	0.06508
278.6 K	0.06692
280.6 K	0.07832
282.6 K	0.09058
283.3 K	0.09732
285.6 K	0.1128
288.2 K	0.1456
288.7 K	0.1441
291.7 K	0.1788
293.2 K	0.2021
294.8 K	0.22
297.4 K	0.2678
298.2 K	0.2935
300.4 K	0.3315
303.2 K	0.4074
303.5 K	0.402
306.5 K	0.4906
308.2 K	0.5588
309.5 K	0.5946

COC(=O)CC(C)(C)C [methyl 3,3-dimethylbutanoate]
Details	vapor or sublimation pressure [kPa]
273.9 K	0.3046
274.4 K	0.3169
275.9 K	0.3519
277.4 K	0.3954
278.7 K	0.436
279.5 K	0.4645
281.5 K	0.5226
282.5 K	0.5675
283.3 K	0.5937
285.5 K	0.6878
288.2 K	0.8223
288.6 K	0.8158
291.6 K	0.9977
293.2 K	1.131
294.6 K	1.195
297.7 K	1.436
298.2 K	1.533
301.8 K	1.854
303.2 K	2.042
303.8 K	2.089
306.9 K	2.498
308.2 K	2.737
309 K	2.783
313.2 K	3.591

CCC(C)(C)OC(C)=O [1,1-dimethylpropyl acetate]
Details	vapor or sublimation pressure [kPa]
273.7 K	0.3855
274 K	0.4017
275.5 K	0.4449
277.5 K	0.5063
278.6 K	0.5244
279.5 K	0.5659
281.6 K	0.6399
283.5 K	0.716
283.6 K	0.7353
286.6 K	0.878
288.4 K	0.9539
289.7 K	1.053
292.7 K	1.218
293.5 K	1.336
295.8 K	1.492
298.4 K	1.698
298.8 K	1.785
301.9 K	2.079
303.4 K	2.33
304.9 K	2.418
307.9 K	2.829
308.4 K	2.994

CCC(=O)OC(C)(C)CC [1,1-dimethylpropyl propanoate]
Details	vapor or sublimation pressure [kPa]
273.9 K	0.1147
274.9 K	0.123
276.9 K	0.1423
278.9 K	0.1651
281 K	0.1902
283 K	0.2208
286 K	0.2725
289.1 K	0.3316
292.2 K	0.4061
295.2 K	0.4966
298.2 K	0.5971
301.2 K	0.7239
304.3 K	0.8484
307.4 K	1.025
310.4 K	1.237

CCCCOC(=O)C(C)(C)C [butyl 2,2-dimethylpropanoate]
Details	vapor or sublimation pressure [kPa]
273.6 K	0.0462
273.9 K	0.04812
274.7 K	0.0517
276.5 K	0.06076
278.4 K	0.06784
282.6 K	0.09472
283.2 K	0.09954
285.6 K	0.1239
288.3 K	0.1447
288.7 K	0.1514
291.7 K	0.1872
293.2 K	0.2073
294.8 K	0.2343
297.8 K	0.2886
298.1 K	0.2847
300.8 K	0.3473
303.3 K	0.4149
303.9 K	0.429
307 K	0.5176
308.3 K	0.5552
309 K	0.596
313.3 K	0.7473

CCCCC(=O)OC [methyl pentanoate]
Details	vapor or sublimation pressure
274.9 K	0.3386 kPa
275.2 K	0.3442 kPa
278.2 K	0.4198 kPa
279.4 K	0.4589 kPa
281.2 K	0.5173 kPa
282.6 K	0.5608 kPa
284.2 K	0.6396 kPa
284.3 K	0.6 kPa
284.5 K	0.6182 kPa
285.5 K	0.6907 kPa
287.4 K	0.7539 kPa
288.4 K	0.7888 kPa and 0.7837 kPa
288.5 K	0.8195 kPa
288.7 K	0.8268 kPa
289.2 K	0.873 kPa
290.3 K	0.9304 kPa
292.4 K	1.029 kPa
293.3 K	1.09 kPa
293.4 K	1.125 kPa
294.5 K	1.227 kPa
296.2 K	1.327 kPa
297.5 K	1.511 kPa
298.3 K	1.517 kPa
299.2 K	1.615 kPa and 1.582 kPa
302.2 K	1.974 kPa and 1.937 kPa
305.2 K	2.273 kPa
308.2 K	2.653 kPa
311.2 K	3.11 kPa

CCCC(=O)OC [methyl butanoate]
Details	vapor or sublimation pressure
274.3 K	1.06 kPa
276.4 K	1.292 kPa
278.2 K	1.397 kPa
279.4 K	1.492 kPa
281.3 K	1.627 kPa
281.6 K	1.705 kPa
283.4 K	1.854 kPa
283.7 K	1.965 kPa
285.5 K	2.102 kPa
285.8 K	2.24 kPa
288.3 K	2.537 kPa and 2.523 kPa and 2.466 kPa
290.3 K	2.927 kPa
291.2 K	3.085 kPa and 2.937 kPa
292.2 K	3.214 kPa
293.2 K	3.382 kPa
294.3 K	3.717 kPa
295.3 K	4.065 kPa
298.1 K	4.479 kPa
300.2 K	5.224 kPa
301.2 K	5.303 kPa
303.2 K	5.697 kPa

CC(C)COC(=O)C(C)C [2-methylpropyl 2-methylpropanoate]
Details	vapor or sublimation pressure [kPa]
274.2 K	0.1054
276.2 K	0.1253
278.2 K	0.1479
283.2 K	0.2118
288.2 K	0.2962
293.2 K	0.4346
298.2 K	0.6003
303.3 K	0.8274
308.4 K	1.137
311.2 K	1.363
313.4 K	1.497
316.2 K	1.851
319.2 K	2.224
